Test [1] addresses T1, BPDOB356 (biphenyl dioxygenase, oxygenase component BphAE) (Comamonas testosteroni, UniProt Q46372, M231T).
T1 construct: gene bphA
Briefly: O2 consumption, Clark-type oxygen electrode. Conditions: read-out: 2,2′-Dichlorobiphenyl / Km /; apparent; air-saturated 50 mM MES pH 6.0; NADH 123 µM; BphG B356 and BphF LB400 as electron transfer partners; Fe(II) added; partly uncoupled.

For test [2], the target named is T2, BPDOB356 (biphenyl dioxygenase, oxygenase component BphAE) (Comamonas testosteroni, UniProt Q46372).
T2 construct: gene bphA; heterologously produced, purified anaerobically; heterohexamer (alpha-beta)3; Rieske [2Fe-2S] and mononuclear Fe(II); 18 N-terminal alpha residues disordered; with Biphenyl dioxygenase subunit beta
T2 sequence (Q46372 whole entry): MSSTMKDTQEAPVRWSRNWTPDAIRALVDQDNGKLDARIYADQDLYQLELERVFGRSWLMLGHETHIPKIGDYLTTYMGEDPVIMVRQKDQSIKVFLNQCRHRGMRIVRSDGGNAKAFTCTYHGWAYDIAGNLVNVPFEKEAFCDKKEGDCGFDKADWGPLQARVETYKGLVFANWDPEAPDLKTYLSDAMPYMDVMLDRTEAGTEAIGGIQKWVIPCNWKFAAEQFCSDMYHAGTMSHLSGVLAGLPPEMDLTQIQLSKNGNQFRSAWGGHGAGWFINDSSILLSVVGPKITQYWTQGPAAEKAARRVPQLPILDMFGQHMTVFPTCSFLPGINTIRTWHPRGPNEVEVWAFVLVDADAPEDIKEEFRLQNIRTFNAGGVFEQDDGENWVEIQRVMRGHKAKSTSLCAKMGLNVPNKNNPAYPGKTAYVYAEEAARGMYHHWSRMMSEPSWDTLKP
T2 sequence (Q46373 whole entry partner): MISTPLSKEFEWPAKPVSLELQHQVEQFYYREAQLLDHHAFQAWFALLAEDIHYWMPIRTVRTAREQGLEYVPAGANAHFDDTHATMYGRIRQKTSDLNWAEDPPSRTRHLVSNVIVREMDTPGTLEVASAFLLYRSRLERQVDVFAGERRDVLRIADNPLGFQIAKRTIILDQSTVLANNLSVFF
Briefly: O2 consumption, Clark-type oxygen electrode. In kind it is biochemical. Conditions: apparent; air-saturated 50 mM MES pH 6.0; NADH 123 µM; BphG B356 and BphF LB400 as electron transfer partners; Fe(II) added; partly uncoupled; read-out: 2,2′-Dichlorobiphenyl / Km /. The source says:
O2 consumption, Clark-type oxygen electrode on BPDOB356 (biphenyl dioxygenase, oxygenase component BphAE)

In test [3] the target is T3, BPDOB356 (biphenyl dioxygenase, oxygenase component BphAE) (Comamonas testosteroni, UniProt Q46372, M231A).
T3 construct: gene bphA
T3 sequence (Q46372 whole entry M231A): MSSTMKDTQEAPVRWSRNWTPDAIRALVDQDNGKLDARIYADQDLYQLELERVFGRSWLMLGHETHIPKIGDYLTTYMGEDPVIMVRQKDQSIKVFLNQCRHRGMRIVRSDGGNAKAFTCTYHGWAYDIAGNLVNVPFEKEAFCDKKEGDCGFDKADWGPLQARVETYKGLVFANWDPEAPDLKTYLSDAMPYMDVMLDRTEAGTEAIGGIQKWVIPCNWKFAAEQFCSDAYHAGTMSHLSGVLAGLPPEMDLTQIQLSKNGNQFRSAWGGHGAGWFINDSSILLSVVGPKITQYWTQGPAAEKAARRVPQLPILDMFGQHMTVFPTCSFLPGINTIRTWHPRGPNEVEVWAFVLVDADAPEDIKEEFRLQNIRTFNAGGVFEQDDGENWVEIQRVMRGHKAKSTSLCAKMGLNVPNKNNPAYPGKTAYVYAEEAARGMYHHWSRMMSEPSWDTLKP
T3 sequence (Q46373 whole entry partner): as the sequence (Q46373 whole entry partner) above
Briefly: O2 consumption, Clark-type oxygen electrode. Conditions: read-out: 2,2′-Dichlorobiphenyl / Km /; apparent; air-saturated 50 mM MES pH 6.0; NADH 123 µM; BphG B356 and BphF LB400 as electron transfer partners; Fe(II) added; partly uncoupled.

Test [4] deals with T2, BPDOB356 (biphenyl dioxygenase, oxygenase component BphAE). Briefly: X-ray crystal structure of complex, […] Å. In kind it is binding. The following applies: biphenyl powder soaked into crystals 24 h, anaerobic; MES pH 6.0; alpha-subunit active site near Fe(II).

T1 sequence (Q46372 whole entry M231T): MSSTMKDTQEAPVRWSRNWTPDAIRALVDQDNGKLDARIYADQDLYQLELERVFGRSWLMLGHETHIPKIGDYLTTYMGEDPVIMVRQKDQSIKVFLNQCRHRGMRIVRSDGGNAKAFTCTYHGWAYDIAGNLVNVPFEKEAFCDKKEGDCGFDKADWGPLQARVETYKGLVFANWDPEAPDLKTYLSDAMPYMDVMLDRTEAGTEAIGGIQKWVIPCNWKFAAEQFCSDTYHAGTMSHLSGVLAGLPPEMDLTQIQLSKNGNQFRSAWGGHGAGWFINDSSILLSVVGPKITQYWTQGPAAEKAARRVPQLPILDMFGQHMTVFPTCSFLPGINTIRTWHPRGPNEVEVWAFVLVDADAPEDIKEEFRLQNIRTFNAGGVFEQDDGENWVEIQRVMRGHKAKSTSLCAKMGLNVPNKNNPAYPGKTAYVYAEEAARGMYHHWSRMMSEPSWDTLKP
T1 sequence (Q46373 whole entry partner): as the sequence (Q46373 whole entry partner) above

As to `Clc1ccccc1-c1ccccc1Cl` [2,2′-dichlorobiphenyl], the results for the Km in test [1], in test [2] and in test [3] were 6.4 µM, 1.1 µM and 5.7 µM, respectively.

`c1ccc(-c2ccccc2)cc1` [biphenyl]: the “X-ray crystal structure of complex, 1.6 Å” value in test [4] was 3GZY (BPDOB356) and 3GZX (BPDOB356•biphenyl complex).

The record behind these values is article PMC3536784, “Structural Characterization of Pandoraea pnomenusa B-356 Biphenyl Dioxygenase Reveals Features of Potent Polychlorinated Biphenyl-Degrading Enzymes” (PLoS ONE, 2013).
